Measured values as given in patent publication US20220370406A1, “METHOD OF TREATING STIMULANT USE DISORDER USING A COMBINATION OF TOPIRAMATE AND PHENTERMINE” (University of Kentucky Research Foundation, priority 2019, published 2022).

How the values were obtained:
[1] = tested on: participants with cocaine use disorder; experiment: Experimental sessions: cardiovascular measures after cocaine sampling dose during maintenance; details: cocaine 80 mg during topiramate (50 or 100 mg/day)+phentermine (0 mg/day) relative to cocaine 0 mg during 0+0 mg/day
[2] = tested on: participants with cocaine use disorder; experiment: Medical safety session: cardiovascular measures after intranasal cocaine; format: in vivo, human
Procedure: Participants completed one, single-blind medical safety session to ensure they could tolerate intranasal cocaine. Intranasal cocaine doses (i.e., 0 [placebo], 10, 20, 40 and 80 mg) were administered in ascending order. Placebo (i.e., 0 mg) was administered at 0900 hours. The subjective-effect questionnaires and cardiovascular measures described below were completed 30 minutes before placebo administration (i.e., 0830 hours), immediately following and at 15-minute intervals for 45 minutes. Subsequent cocaine administrations were separated by 45 minutes.

[3] = Cocaine 10 mg, Topiramate (0 mg/day) group
[4] = Cocaine 10 mg, Topiramate (50 mg/day) group
[5] = Cocaine 10 mg, Topiramate (100 mg/day) group
[6] = Cocaine 20 mg, Topiramate (0 mg/day) group
[7] = Cocaine 20 mg, Topiramate (50 mg/day) group
[8] = Cocaine 20 mg, Topiramate (100 mg/day) group
[9] = Cocaine 40 mg, Topiramate (0 mg/day) group
[10] = Cocaine 40 mg, Topiramate (50 mg/day) group
[11] = Cocaine 40 mg, Topiramate (100 mg/day) group
[12] = Cocaine 80 mg, Topiramate (0 mg/day) group
[13] = Cocaine 80 mg, Topiramate (50 mg/day) group
[14] = Cocaine 80 mg, Topiramate (100 mg/day) group

COC(=O)[C@H]1[C@@H](OC(=O)c2ccccc2)C[C@@H]2CC[C@H]1N2C [Cocaine, cocaine]
heart rate [1]: significantly increased
Vitals Diastolic Pressure, mean peak effect [2, 3]: 77.2
Vitals Heart Rate, mean peak effect [2, 3]: 70.9
Vitals Systolic Pressure, mean peak effect [2, 3]: 121.1
Vitals Diastolic Pressure, mean peak effect [2, 4]: 84.8
Vitals Heart Rate, mean peak effect [2, 4]: 67.4
Vitals Systolic Pressure, mean peak effect [2, 4]: 123.9
Vitals Diastolic Pressure, mean peak effect [2, 5]: 82.6
Vitals Heart Rate, mean peak effect [2, 5]: 66.7
Vitals Systolic Pressure, mean peak effect [2, 5]: 125.1
Vitals Diastolic Pressure, mean peak effect [2, 6]: 81.5
Vitals Heart Rate, mean peak effect [2, 6]: 77.9
Vitals Systolic Pressure, mean peak effect [2, 6]: 125.3
Vitals Diastolic Pressure, mean peak effect [2, 7]: 84.1
Vitals Heart Rate, mean peak effect [2, 7]: 66.6
Vitals Systolic Pressure, mean peak effect [2, 7]: 131.8
Vitals Diastolic Pressure, mean peak effect [2, 8]: 82.3
Vitals Heart Rate, mean peak effect [2, 8]: 64.6
Vitals Systolic Pressure, mean peak effect [2, 8]: 128.3
Vitals Diastolic Pressure, mean peak effect [2, 9]: 81.6
Vitals Heart Rate, mean peak effect [2, 9]: 74.8
Vitals Systolic Pressure, mean peak effect [2, 9]: 124.9
Vitals Diastolic Pressure, mean peak effect [2, 10]: 82.4
Vitals Heart Rate, mean peak effect [2, 10]: 70.8
Vitals Systolic Pressure, mean peak effect [2, 10]: 129.9
Vitals Diastolic Pressure, mean peak effect [2, 11]: 86.5
Vitals Heart Rate, mean peak effect [2, 11]: 67.8
Vitals Systolic Pressure, mean peak effect [2, 11]: 131.7
Vitals Diastolic Pressure, mean peak effect [2, 12]: 85.9
Vitals Heart Rate, mean peak effect [2, 12]: 85.8
Vitals Systolic Pressure, mean peak effect [2, 12]: 130.5
Vitals Diastolic Pressure, mean peak effect [2, 13]: 84.8
Vitals Heart Rate, mean peak effect [2, 13]: 78.0
Vitals Systolic Pressure, mean peak effect [2, 13]: 133.8
Vitals Diastolic Pressure, mean peak effect [2, 14]: 88.3
Vitals Heart Rate, mean peak effect [2, 14]: 77.6
Vitals Systolic Pressure, mean peak effect [2, 14]: 137.4
heart rate or blood pressure ([2]; cocaine 20, 40 or 80 mg above placebo levels in at least one of the topiramate groups, medical safety session): significantly increased
